PubChem BioAssay AID328 (DTP/NCI, 2004)
“And” between values parts separate entries of the source, which are not always exact repeats. Equal values may be shown once. Inconclusive results and toxic doses are left out. Rule for the calls: active = survival T/C of 150% or more; inactive = T/C below 125% in these data.

Tested on: BDF1 mice, P388 leukemia ip, median survival T/C
Experiment: NCI In Vivo Anticancer Drug Screen. Data for tumor model P388 Leukemia (intraperitoneal) in B6D2F1 (BDF1) mice
Conditions: endpoint: median survival time, higher = longer survival
Method: The antitumor activity of compounds was measured in mice bearing transplantable tumors. Survival or tumor size were measured and the results are expressed as the measurement made in the treated group (T) divided by the measurement made in the vehicle treated control group (C). The tumor model used in this assay is P388 Leukemia (intraperitoneal) in B6D2F1 (BDF1) mice

[1] = dose: 100.0 mg/kg/injection, schedule: Q01DX009 (ip), vehicle: Klucel (hydroxypropylcellulose) (HPC)
[2] = dose: 100.0 mg/kg/injection, schedule: Q04DX003 (ip), vehicle: Klucel (hydroxypropylcellulose) (HPC)
[3] = dose: 200.0 mg/kg/injection, schedule: Q04DX003 (ip), vehicle: Klucel (hydroxypropylcellulose) (HPC)
[4] = dose: 100.0 mg/kg/injection, schedule: Q01DX009 (ip), vehicle: saline
[5] = dose: 200.0 mg/kg/injection, schedule: Q01DX009 (ip), vehicle: saline
[6] = dose: 100.0 mg/kg/injection, schedule: Q04DX003 (ip), vehicle: saline
[7] = dose: 50.0 mg/kg/injection, schedule: Q01DX009 (ip), vehicle: saline with Tween-80
[8] = dose: 200.0 mg/kg/injection, schedule: Q04DX003 (ip), vehicle: saline
[9] = dose: 100.0 mg/kg/injection, schedule: Q04DX003 (ip), vehicle: saline with Tween-80

Measured: T/C

CCOC(=S)SCC(=O)Nc1ccc(S(N)(=O)=O)cc1
inactive: dose: 15.0 mg/kg/injection, schedule: Q01DX009 (ip), vehicle: saline with Tween-80 95 % of control | dose: 30.0 mg/kg/injection, schedule: Q01DX009 (ip), vehicle: saline with Tween-80 104 % of control | dose: 60.0 mg/kg/injection, schedule: Q01DX009 (ip), vehicle: saline with Tween-80 113 % of control

CCN(CC)CCNc1ccc(N=Nc2ccc(SC)cc2)c2ccccc12
inactive: dose: 25.0 mg/kg/injection, schedule: Q01DX009 (ip), vehicle: Klucel (hydroxypropylcellulose) (HPC) 105 % of control | dose: 50.0 mg/kg/injection, schedule: Q01DX009 (ip), vehicle: Klucel (hydroxypropylcellulose) (HPC) 100 % of control | dose: 50.0 mg/kg/injection, schedule: Q04DX003 (ip), vehicle: Klucel (hydroxypropylcellulose) (HPC) 100 % of control | [1] 105 % of control | [2] 104 % of control | [3] 90 % of control

COC(=O)C/C(=C/C=C1/C(=O)ON=C1C)c1c(C)[nH]oc1=O
inactive: [4] 90 % of control | [5] 100 % of control | dose: 400.0 mg/kg/injection, schedule: Q01DX009 (ip), vehicle: saline 95 % of control

C(/C=C/C=C/N1CCCCC1)=[N+]1CCCCC1
inactive: dose: 0.13 mg/kg/injection, schedule: Q01DX009 (ip), vehicle: saline 97 % of control | dose: 0.25 mg/kg/injection, schedule: Q01DX009 (ip), vehicle: saline 104 % of control | dose: 0.5 mg/kg/injection, schedule: Q01DX009 (ip), vehicle: saline 89 % of control | dose: 1.0 mg/kg/injection, schedule: Q01DX009 (ip), vehicle: saline 110 % of control

O=COc1ccc([N+](=O)[O-])cc1
inactive: dose: 25.0 mg/kg/injection, schedule: Q04DX003 (ip), vehicle: saline 95 % of control | dose: 50.0 mg/kg/injection, schedule: Q04DX003 (ip), vehicle: saline 100 % of control | [6] 100 % of control

CC(C)N(C)Cc1ccccc1Sc1ccccc1CN(C)C(C)C
inactive: dose: 100.0 mg/kg/injection, schedule: Q01DX001 (ip), vehicle: other 108 % of control | dose: 200.0 mg/kg/injection, schedule: Q01DX001 (ip), vehicle: other 107 % of control | dose: 400.0 mg/kg/injection, schedule: Q01DX001 (ip), vehicle: other 97 % of control

c1cc2c(c(NC3=NCCCO3)c1)CCCC2
inactive: dose: 12.5 mg/kg/injection, schedule: Q01DX009 (ip), vehicle: saline with Tween-80 100 % of control | dose: 25.0 mg/kg/injection, schedule: Q01DX009 (ip), vehicle: saline with Tween-80 110 % of control | [7] 105 % of control

COc1ccc2c(c1)-c1nn(CCO)c(-c3ccncc3)c1CC2
inactive: dose: 100.0 mg/kg/injection, schedule: Q04DX002 (ip), vehicle: DMSO 100 % of control | dose: 200.0 mg/kg/injection, schedule: Q04DX002 (ip), vehicle: DMSO 99 % of control | dose: 400.0 mg/kg/injection, schedule: Q04DX002 (ip), vehicle: DMSO 103 % of control

NC(N)=NCCCCCC(=O)O
inactive: [6] 104 % of control | [8] 109 % of control | dose: 400.0 mg/kg/injection, schedule: Q01DX001 (ip), vehicle: saline 87 % of control

Cn1ccc(=O)c2cc([N+](=O)[O-])ccc21
inactive: dose: 12.5 mg/kg/injection, schedule: Q01DX009 (ip), vehicle: water 94 % of control | dose: 25.0 mg/kg/injection, schedule: Q01DX009 (ip), vehicle: water 111 % of control | dose: 25.0 mg/kg/injection, schedule: Q04DX003 (ip), vehicle: water 102 % of control | dose: 50.0 mg/kg/injection, schedule: Q01DX009 (ip), vehicle: water 93 % of control | dose: 50.0 mg/kg/injection, schedule: Q04DX003 (ip), vehicle: water 100 % of control | dose: 100.0 mg/kg/injection, schedule: Q01DX009 (ip), vehicle: water 94 % of control | dose: 100.0 mg/kg/injection, schedule: Q04DX003 (ip), vehicle: water 109 % of control | dose: 200.0 mg/kg/injection, schedule: Q01DX009 (ip), vehicle: water 93 % of control | dose: 200.0 mg/kg/injection, schedule: Q04DX003 (ip), vehicle: water 92 % of control | dose: 300.0 mg/kg/injection, schedule: Q01DX009 (ip), vehicle: water 113 % of control

COc1ccccc1/C=C/c1ccnc2ccccc12
inactive: [1] 95 % of control | [2] 110 % of control | dose: 200.0 mg/kg/injection, schedule: Q01DX009 (ip), vehicle: Klucel (hydroxypropylcellulose) (HPC) 113 % of control | [3] 115 % of control | dose: 400.0 mg/kg/injection, schedule: Q01DX009 (ip), vehicle: Klucel (hydroxypropylcellulose) (HPC) 122 % of control | dose: 400.0 mg/kg/injection, schedule: Q04DX003 (ip), vehicle: Klucel (hydroxypropylcellulose) (HPC) 105 % of control

OCc1cccc(F)c1
inactive: [4] 96 % of control | [6] 109 % of control | [5] 107 % of control | [8] 109 % of control | dose: 400.0 mg/kg/injection, schedule: Q04DX003 (ip), vehicle: saline 104 % of control

CC(C)(C)c1cc2c3c(c1)C(C)(C)OS3(C)(=O)OC2(C)C
inactive: dose: 12.5 mg/kg/injection, schedule: Q04DX002 (ip), vehicle: saline with Tween-80 93 % of control | dose: 25.0 mg/kg/injection, schedule: Q04DX002 (ip), vehicle: saline with Tween-80 107 % of control | dose: 50.0 mg/kg/injection, schedule: Q04DX002 (ip), vehicle: saline with Tween-80 97 % of control and 98 % of control

CSCSCC(NS(=O)(=O)c1ccc(C)cc1)C(=O)O (configuration not stated)
inactive: [9] 104 % of control | dose: 200.0 mg/kg/injection, schedule: Q04DX003 (ip), vehicle: saline with Tween-80 109 % of control | dose: 400.0 mg/kg/injection, schedule: Q04DX003 (ip), vehicle: saline with Tween-80 100 % of control

CC(C)=CCCC(C)=C(C#N)C#N
inactive: dose: 25.0 mg/kg/injection, schedule: Q04DX003 (ip), vehicle: saline with Tween-80 107 % of control | dose: 50.0 mg/kg/injection, schedule: Q04DX003 (ip), vehicle: saline with Tween-80 105 % of control | [9] 107 % of control

CCCSc1nc(N)nc2nc[nH]c12
inactive: dose: 100.0 mg/kg/injection, schedule: Q04DX003 (ip), vehicle: alcohol 100 % of control | dose: 200.0 mg/kg/injection, schedule: Q04DX003 (ip), vehicle: alcohol 104 % of control | dose: 400.0 mg/kg/injection, schedule: Q04DX003 (ip), vehicle: alcohol 90 % of control

O=S(=O)(NCCO)c1ccc(Cl)cc1
inactive: dose: 100.0 mg/kg/injection, schedule: Q01DX001 (ip), vehicle: Klucel (hydroxypropylcellulose) (HPC) 100 % of control | dose: 200.0 mg/kg/injection, schedule: Q01DX001 (ip), vehicle: Klucel (hydroxypropylcellulose) (HPC) 100 % of control | dose: 400.0 mg/kg/injection, schedule: Q01DX001 (ip), vehicle: Klucel (hydroxypropylcellulose) (HPC) 100 % of control

[NH2-].[NH2-].[NH2-].[NH2-].[NH2-].[NH2-].[Ni]
inactive: dose: 6.25 mg/kg/injection, schedule: Q01DX001 (ip), vehicle: saline 99 % of control | dose: 12.5 mg/kg/injection, schedule: Q01DX001 (ip), vehicle: saline 103 % of control

CC(=O)n1ccc(=O)[nH]c1=O
inactive: [7] 102 % of control | dose: 100.0 mg/kg/injection, schedule: Q01DX009 (ip), vehicle: saline with Tween-80 110 % of control | dose: 200.0 mg/kg/injection, schedule: Q01DX009 (ip), vehicle: saline with Tween-80 99 % of control
